According to the supplement of paper PMC10307832:

Tests used:
Assay in all cases: relative viability (nuclei count vs DMSO), 5 days (fraction); higher = more cells survive
Cediranib + Navitoclax = compound: COc1cc2c(Oc3ccc4[nH]c(C)cc4c3F)ncnc2cc1OCCCN1CCCC1 [Cediranib] + CC1(C)CCC(c2ccc(Cl)cc2)=C(CN2CCN(c3ccc(C(=O)NS(=O)(=O)c4ccc(N[C@H](CCN5CCOCC5)CSc5ccccc5)c(S(=O)(=O)C(F)(F)F)c4)cc3)CC2)C1 [Navitoclax] (partner 0.5 µM)
How it was run: (§1)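 Nuclei were stained with Hoechst during a one-step fixation (final 0.05% Triton X-100, 1% formaldehyde, 1 ug/ml Hoechst) carried out 5 days after dosing, then counted on 4× images. The cells, lung cancer lines in 1536-well plates, had been dosed by pin tool the day after seeding with one drug alone or a fixed anchor-drug dose plus five library-drug doses (not always all listed) in √10 steps. Relative viability is the nuclei count in treated wells divided by that in vehicle wells, and each value is the median of duplicate plates.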

Cediranib + Foretinib = compound: COc1cc2c(Oc3ccc4[nH]c(C)cc4c3F)ncnc2cc1OCCCN1CCCC1 [Cediranib] + COc1cc2c(Oc3ccc(NC(=O)C4(C(=O)Nc5ccc(F)cc5)CC4)cc3F)ccnc2cc1OCCCN1CCOCC1 [Foretinib] (partner 0.25 µM)
How it was run: as §1

Cediranib + Crizotinib = compound: COc1cc2c(Oc3ccc4[nH]c(C)cc4c3F)ncnc2cc1OCCCN1CCCC1 [Cediranib] + C[C@@H](Oc1cc(-c2cnn(C3CCNCC3)c2)cnc1N)c1c(Cl)ccc(F)c1Cl [Crizotinib] (partner 1 µM)
How it was run: as §1

Decitabine + Trametinib = compound: Nc1ncn([C@H]2C[C@H](O)[C@@H](CO)O2)c(=O)n1 [Decitabine] + CC(=O)Nc1cccc(-n2c(=O)n(C3CC3)c(=O)c3c(Nc4ccc(I)cc4F)n(C)c(=O)c(C)c32)c1 [Trametinib] (partner 0.02 µM)
How it was run: as §1

Cell Line	relative viability (Cediranib + Navitoclax; first compound 0.04 µM)	relative viability (Cediranib + Navitoclax; first compound 0.1265 µM)	relative viability (Cediranib + Navitoclax; first compound 0.4 µM)	relative viability (Cediranib + Navitoclax; first compound 1.265 µM)	relative viability (Cediranib + Navitoclax; first compound 4 µM)	relative viability (Cediranib + Foretinib; first compound 0.04 µM)	relative viability (Cediranib + Foretinib; first compound 0.1265 µM)	relative viability (Cediranib + Foretinib; first compound 0.4 µM)	relative viability (Cediranib + Foretinib; first compound 1.265 µM)	relative viability (Cediranib + Foretinib; first compound 4 µM)	relative viability (Cediranib + Crizotinib; first compound 0.04 µM)	relative viability (Cediranib + Crizotinib; first compound 0.1265 µM)	relative viability (Cediranib + Crizotinib; first compound 0.4 µM)	relative viability (Cediranib + Crizotinib; first compound 1.265 µM)	relative viability (Cediranib + Crizotinib; first compound 4 µM)	relative viability (Decitabine + Trametinib; first compound 0.04 µM)	relative viability (Decitabine + Trametinib; first compound 0.1265 µM)	relative viability (Decitabine + Trametinib; first compound 0.4 µM)	relative viability (Decitabine + Trametinib; first compound 1.265 µM)	relative viability (Decitabine + Trametinib; first compound 4 µM)
NCI-H2126	0.8	0.934	0.781	0.811	0.914	1.26	1.2	1.04	1.16	1.05	1.04	1.07	0.986	0.994	1.01	0.576	0.545	0.474	0.422	0.44
NCI-H2170	0.691	0.671	0.567	0.61	0.713	1.02	0.987	0.931	1.01	1.12	1.45	1.42	1.05	1.13	1.37	0.651	0.639	0.587	0.41	0.282
NCI-H2228	0.791	0.968	0.883	1.22	1.1	0.986	0.882	0.761	0.838	0.99	0.54	0.562	0.545	0.419	0.327	0.396	0.394	0.358	0.198	0.204
NCI-H2347	0.886	0.754	0.748	0.831	0.891	0.918	1.03	0.996	0.833	0.957	0.672	0.698	0.794	0.865	0.675	0.295	0.334	0.267	0.257	0.287
NCI-H2405	0.766	1.01	0.79	1.11	0.838	1.1	1.13	1.03	1.1	1.02	0.849	0.82	0.792	0.823	0.825	0.575	0.732	0.645	0.493	0.407
NCI-H3122	1.05	1.03	1.05	0.998	1.02	0.938	1.03	0.991	0.844	1.02	0.259	0.297	0.277	0.256	0.275	0.213	0.208	0.243	0.167	0.218
PC-3 [JPC-3]	0.715	0.705	0.735	0.849	0.801	1.1	1.1	0.98	1.05	1.08	1.05	1.04	1.01	1.02	0.857		0.7	0.498	0.485	0.657
PC-14	0.989	1.03	1.02	0.905	1.24	1.04	1.08	0.861	0.997	0.928	0.895	0.909	0.82	0.918	0.855	0.51	0.343	0.0811	0.146	0.128
RERF-LC-KJ	0.974	1.29	0.756	0.926	0.734	0.917	0.889	0.873	0.862	0.953	0.875	0.893	0.799	0.782	0.752	0.808	0.885	0.558	0.594	0.636
SK-LU-1	1.1	0.999	0.859	0.654	1.04	0.945	0.825	0.725	0.876	0.972	0.973	0.853	0.781	0.897	0.983	0.443	0.528	0.386	0.45	0.365
SK-MES-1	1.23	1.36	1.13	1.21	1.2	0.834	1.02	0.927	0.901	0.976	1.06	1.05	0.915	0.963	1.06	0.485	0.595	0.453	0.345	0.382
SW 1573	0.925	1.06	0.872	1.01	1.05	0.937	1.01	0.912	0.996	1.09	0.833	0.764	0.726	0.717	0.889	0.44	0.638	0.368	0.27	0.301
